Data as given in patent publication US20250296959A1, “B7-H3 TARGETING PEPTIDES AND CONSTRUCTS THEREOF” (Mariana Oncology Inc., priority 2024, published 2025).
Positions of bridges follow the written chain, without caps; N, C: chain ends. Non-standard residues stand in square brackets, D forms with d. Residues, ends and D or L forms follow the SMILES beside them. *: point of attachment. Ala(1-CH2CO2H-4-piperidyl) = N[C@@H](CC1CCN(CC(=O)O)CC1)C(=O)O; DOTA = O=C(O)CN1CCN(CC(=O)O)CCN(CC(=O)*)CCN(CC(=O)O)CC1; Trp(5-F) = N[C@@H](Cc1c[nH]c2ccc(F)cc12)C(=O)O; Ala(4-THP) = N[C@@H](CC1CCOCC1)C(=O)O; Val(3-OH) = CC(C)(O)[C@H](N)C(=O)O; Aad = N[C@@H](CCCC(=O)O)C(=O)O; Tle = CC(C)(C)[C@H](N)C(=O)O; hLeu = CC(C)CC[C@H](N)C(=O)O; Nle = CCCC[C@H](N)C(=O)O; Abu = CC[C@H](N)C(=O)O; Dap = NC[C@H](N)C(=O)O

Target: T1, human 4lg B7-H3 (Homo sapiens, UniProt Q5ZPR3)
T1 sequence (Q5ZPR3 29-534): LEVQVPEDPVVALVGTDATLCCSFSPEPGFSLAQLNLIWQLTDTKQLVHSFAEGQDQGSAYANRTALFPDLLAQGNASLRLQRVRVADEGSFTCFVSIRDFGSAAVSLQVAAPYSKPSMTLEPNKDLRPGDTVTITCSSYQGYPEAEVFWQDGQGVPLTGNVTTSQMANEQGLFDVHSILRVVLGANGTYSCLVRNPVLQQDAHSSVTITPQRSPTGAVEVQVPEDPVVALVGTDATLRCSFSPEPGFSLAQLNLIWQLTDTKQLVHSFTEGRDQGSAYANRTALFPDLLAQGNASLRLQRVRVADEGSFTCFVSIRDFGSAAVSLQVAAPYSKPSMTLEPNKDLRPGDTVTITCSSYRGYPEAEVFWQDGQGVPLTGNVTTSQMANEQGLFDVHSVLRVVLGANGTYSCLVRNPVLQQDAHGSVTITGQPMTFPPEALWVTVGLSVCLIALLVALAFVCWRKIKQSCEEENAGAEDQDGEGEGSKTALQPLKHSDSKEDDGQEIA
Assay: Affinity determination by surface plasmon resonance (SPR) to 4Ig B7-H3
Settings: 4Ig B7-H3

[1] = SPR KD—37° C., 37° C. flow cell temperature
[2] = SPR KD—25° C., 25° C. flow cell temperature

Row | SMILES | Kd [1] | Kd [2]
1 | CC(=O)N[C@@H](CCC(C)C)C(=O)N[C@@H](Cc1ccc(O)cc1)C(=O)N[C@H]1CSSC[C@@H](C(=O)N[C@@H](Cc2c[nH]c3ccc(F)cc23)C(=O)N[C@@H](Cc2ccccc2)C(=O)N[C@H](C(=O)N[C@H](CCCCNC(=O)CN2CCN(CC(=O)O)CCN(CC(=O)O)CCN(CC(=O)O)CC2)C(=O)O)C(C)(C)O)NC(=O)[C@H](Cc2ccc(O)cc2)NC(=O)[C@H](C(C)C)NC(=O)[C@H](CC(=O)O)NC(=O)[C@H](CC2CCOCC2)NC(=O)[C@H](CN)NC(=O)CNC(=O)[C@H](C(C)(C)C)NC1=O [compound 372, Ac-hLeu-Y-C-Tbg-G-Dap-ThpA-D-V-Y-C-5FW-F-hydroxyVal-dLys(DOTA)-COOH] (Ac-[hLeu]YC[Tle]G[Dap][Ala(4-THP)]DVYC[Trp(5-F)]F[Val(3-OH)][dK](DOTA)-OH; disulfide 3-11) | < 1 nM | –
2 | CCCC[C@H](NC(C)=O)C(=O)N[C@@H](Cc1ccc(O)cc1)C(=O)N[C@H]1CSSC[C@@H](C(=O)N[C@@H](Cc2c[nH]c3ccccc23)C(=O)N[C@@H](Cc2ccccc2)C(=O)N[C@H](C(=O)N[C@H](CCCCNC(=O)CN2CCN(CC(=O)O)CCN(CC(=O)O)CCN(CC(=O)O)CC2)C(=O)O)[C@@H](C)O)NC(=O)[C@H](Cc2ccc(O)cc2)NC(=O)[C@H](C(C)C)NC(=O)[C@H](CC(=O)O)NC(=O)[C@H](Cc2ccc(O)cc2)NC(=O)[C@H](CCCC(=O)O)NC(=O)CNC(=O)[C@H](C(C)C)NC1=O [compound 103, Ac-Nle-Y-C-V-G-HomoGlu-Y-D-V-Y-C-W-F-Thr-dLys(DOTA)-COOH] (Ac-[Nle]YCVG[Aad]YDVYCWFT[dK](DOTA)-OH; disulfide 3-11) | – | 10 to 100 nM
3 | CC(=O)N[C@@H](CCC(C)C)C(=O)N[C@@H](Cc1ccc(O)cc1)C(=O)N[C@H]1CSSC[C@@H](C(=O)N[C@@H](Cc2c[nH]c3ccc(F)cc23)C(=O)N[C@@H](Cc2ccccc2)C(=O)N[C@H](C(N)=O)C(C)(C)O)NC(=O)[C@H](Cc2ccc(O)cc2)NC(=O)[C@H](C(C)C)NC(=O)[C@H](CC(=O)O)NC(=O)[C@H](CC2CCN(CC(=O)O)CC2)NC(=O)[C@H](CCCCNC(=O)CN2CCN(CC(=O)O)CCN(CC(=O)O)CCN(CC(=O)O)CC2)NC(=O)CNC(=O)[C@H](C(C)(C)C)NC1=O [compound 419, Ac-hLeu-Y-C-Tbg-G-Lys(DOTA)-Pip(CH2COOH)Ala-D-V-Y-C-5FW-F-hydroxyVal-CONH2] (Ac-[hLeu]YC[Tle]GK(DOTA)[Ala(1-CH2CO2H-4-piperidyl)]DVYC[Trp(5-F)]F[Val(3-OH)]-NH2; disulfide 3-11) | 1 to 10 nM | –
4 | CCCC[C@H](NC(C)=O)C(=O)N[C@@H](Cc1ccc(O)cc1)C(=O)N[C@H]1CSSC[C@@H](C(=O)N[C@@H](Cc2c[nH]c3ccccc23)C(=O)N[C@@H](Cc2ccccc2)C(=O)N[C@H](C(=O)N[C@H](CCCCNC(=O)CN2CCN(CC(=O)O)CCN(CC(=O)O)CCN(CC(=O)O)CC2)C(N)=O)[C@@H](C)O)NC(=O)[C@H](Cc2ccc(O)cc2)NC(=O)[C@H](CC)NC(=O)[C@H](CC(=O)O)NC(=O)[C@H](Cc2ccc(O)cc2)NC(=O)[C@H](CCCCN)NC(=O)CNC(=O)[C@H](C(C)C)NC1=O [compound 96, Ac-Nle-Y-C-V-G-K-Y-D-Abu-Y-C-W-F-Thr-dLys(DOTA)-CONH2] (Ac-[Nle]YCVGKYD[Abu]YCWFT[dK](DOTA)-NH2; disulfide 3-11) | – | 10 to 100 nM
5 | CC(=O)N[C@@H](CCC(C)C)C(=O)N[C@@H](Cc1ccc(O)cc1)C(=O)N[C@H]1CSSC[C@@H](C(=O)N[C@@H](Cc2c[nH]c3ccccc23)C(=O)N[C@@H](Cc2ccccc2)C(=O)N[C@H](C(=O)N[C@H](CCCCNC(=O)CN2CCN(CC(=O)O)CCN(CC(=O)O)CCN(CC(=O)O)CC2)C(N)=O)C(C)(C)O)NC(=O)[C@H](Cc2ccc(O)cc2)NC(=O)[C@H](C(C)C)NC(=O)[C@H](CC(=O)O)NC(=O)[C@H](Cc2ccc(O)cc2)NC(=O)[C@H](CCCCN)NC(=O)CNC(=O)[C@H](C(C)C)NC1=O [compound 149, Ac-hLeu-Y-C-V-G-K-Y-D-V-Y-C-W-F-hydroxyVal-dLys(DOTA)-CONH2] (Ac-[hLeu]YCVGKYDVYCWF[Val(3-OH)][dK](DOTA)-NH2; disulfide 3-11) | – | < 1 nM
